From patent publication US4265904A, “Prostacyclin analogs of the 1 series and related analogs” (American Cyanamid Company, priority 1979, dated 1981)

Assays:
Format in all cases: in vivo, guinea pigs
[1] = test system: bronchospasms elicited by 5-hydroxytryptamine; assay: Bronchodilator activity against bronchospasm elicited by intravenous 5-hydroxytryptamine, Konzett procedure; conditions: Cavia porcellus; guinea pig, 5-hydroxytryptamine spasmogen, three logarithmic cumulative intravenous doses; read-out: ED50 5HT
Protocol: (§1) The compounds of this invention are useful as bronchodilators for the treatment of asthma and chronic bronchitis. Bronchodilator activity is determined in guinea pigs against bronchospasms elicited by intravenous injections of 5-hydroxytryptamine, histamine or acetylcholine by the Konzett procedure. [See J. Lulling, P. Lievens, F. El Sayed and J. Prignot, Arzneimittel-Forschung, 18, 995 (1968).]
(§2) In Table which follows bronchodilator activity for representative compounds of this invention against one or more of three spasmogenic agents is expressed as an ED50 determined from the results obtained with three logarithmic cummulative intravenous doses. In this assay, these compounds of this invention provide an effect of longer duration than does natural l-PGE1 or l-PGE2.

[2] = test system: bronchospasms elicited by histamine; assay: Bronchodilator activity against bronchospasm elicited by intravenous histamine, Konzett procedure; conditions: Cavia porcellus; guinea pig, histamine spasmogen, three logarithmic cumulative intravenous doses
Protocol: as §1, §2

[3] = test system: bronchospasms elicited by acetylcholine; assay: Bronchodilator activity against bronchospasm elicited by intravenous acetylcholine, Konzett procedure; conditions: Cavia porcellus; guinea pig, acetylcholine spasmogen, three logarithmic cumulative intravenous doses
Protocol: as §1, §2

SMILES	ED50 [1]	ED50 [2]	ED50 [3]
CCCCC(C)(O)C/C=C/[C@@H]1[C@H]2CC(C(I)CCCC(=O)OC)O[C@H]2C[C@H]1O (relative stereo) [dl 11α,16-Dihydroxy-6,9α-epoxy-5-iodo-16-methyl-13-trans-prostenoic acid methyl ester]	0.004 mg/kg	0.0069 mg/kg	0.0065 mg/kg
C=CC(O)(C/C=C/[C@@H]1[C@H]2CC(CCCCC(=O)CO)O[C@H]2C[C@H]1O)CCCC (relative stereo) [11a, 16-Dihydroxy-6,9a (epoxy)-1-hydroxymethyl-1-oxo-16-vinyl-13-trans-prostene]	0.0276 mg/kg	0.00146 mg/kg	0.0032 mg/kg
CCCCC(C)(O)C/C=C/[C@@H]1[C@H]2CC(CCCCC(=O)OC)O[C@H]2C[C@H]1O (relative stereo) [dl 11α,16-Dihydroxy-6,9α-epoxy-16-methyl-13-trans-prostenoic acid methyl ester]	0.0925 mg/kg	0.111 mg/kg	0.146 mg/kg
C=CC(O)(C/C=C/[C@@H]1[C@H]2CC(CCCCC(=O)OC)O[C@H]2C[C@H]1O)CCCC (relative stereo) [dl 11α,16-Dihydroxy-6,9α-epoxy-16-vinyl-13-trans-prostenoic acid methyl ester]	0.0367 mg/kg	0.0254 mg/kg	0.0491 mg/kg
